Results taken from US10077269B2, “Imidazopyridazine compounds” (Pfizer Inc., priority 2014, dated 2018).

Target: Human PDE4D FL (Homo sapiens (Human), UniProt Q08499)
Experiment: PDE4D3 Scintillation Proximity Assay (SPA), inhibition of enzyme activity
Assay type: biochemical
Details: geometric mean of 2-9 determinations unless otherwise indicated; 1 μM cAMP, 30 min at 25° C.

Sequence of Human PDE4D FL (Q08499 186-808): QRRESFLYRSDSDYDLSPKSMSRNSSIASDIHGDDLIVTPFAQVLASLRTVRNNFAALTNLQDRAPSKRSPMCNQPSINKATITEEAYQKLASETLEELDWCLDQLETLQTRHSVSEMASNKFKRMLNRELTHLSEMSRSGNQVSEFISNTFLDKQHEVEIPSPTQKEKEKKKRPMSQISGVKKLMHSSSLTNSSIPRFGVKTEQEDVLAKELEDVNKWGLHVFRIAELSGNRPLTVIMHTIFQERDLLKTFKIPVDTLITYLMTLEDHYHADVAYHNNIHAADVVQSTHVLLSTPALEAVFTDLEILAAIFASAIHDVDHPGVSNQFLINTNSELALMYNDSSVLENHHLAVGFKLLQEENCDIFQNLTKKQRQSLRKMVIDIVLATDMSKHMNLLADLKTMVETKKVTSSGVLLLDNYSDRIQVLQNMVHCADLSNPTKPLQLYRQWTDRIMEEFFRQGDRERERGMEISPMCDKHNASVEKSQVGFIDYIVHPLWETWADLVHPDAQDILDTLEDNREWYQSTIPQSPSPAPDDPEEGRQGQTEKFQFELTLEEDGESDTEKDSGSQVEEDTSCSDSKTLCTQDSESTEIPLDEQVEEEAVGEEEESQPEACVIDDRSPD

COC1CN(C(=O)c2nc3cccnn3c2-c2ccc(Cl)cc2)C1 [Example 31, [3-(4-chlorophenyl)imidazo[1,2-b]pyridazin-2-yl](3-methoxyazetidin-1-yl)methanone]
IC50: > 26.2 µM

O=C(NC1CC1)c1nc2cccnn2c1-c1ccnc(C(F)(F)F)c1 [Example 42, N-cyclopropyl-3-[2-(trifluoromethyl)pyridin-4-yl]imidazo[1,2-b]pyridazine-2-carboxamide]
IC50: > 12.2 µM
